Experiments:
Assay in all cases: relative viability (nuclei count vs DMSO), 5 days (fraction); higher = more cells survive
UMC-11 = tested on: UMC-11
Outline: (§1)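 The day after seeding in 1536-well plates, lung cancer cell lines were treated by pin tool with a single drug, or with a fixed anchor-drug dose together with five library-drug doses (not always all listed) in √10 steps. After 5 days, a combined fix-and-stain solution (final 0.05% Triton X-100, 1% formaldehyde, 1 ug/ml Hoechst) was added. Nuclei counted on 4× images gave relative viability as treated counts over vehicle counts, reported as the median of duplicate plates.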

COR-L 105 = tested on: COR-L 105
Outline: as §1

NCI-H1792 = tested on: NCI-H1792
Outline: as §1

NCI-H1944 = tested on: NCI-H1944
Outline: as §1

SK-LU-1 = tested on: SK-LU-1
Outline: as §1

NCI-H2009 = tested on: NCI-H2009
Outline: as §1

LC-2-ad = tested on: LC-2-ad
Outline: as §1

A-427 = tested on: A-427
Outline: as §1

LU99A = tested on: LU99A
Outline: as §1

NCI-H2085 = tested on: NCI-H2085
Outline: as §1

SW 900 = tested on: SW 900
Outline: as §1

NCI-H1666 = tested on: NCI-H1666
Outline: as §1

HCC-78 = tested on: HCC-78
Outline: as §1

LXF-289 = tested on: LXF-289
Outline: as §1

NCI-H1915 = tested on: NCI-H1915
Outline: as §1

NCI-H460 = tested on: NCI-H460
Outline: as §1

NCI-H1793 = tested on: NCI-H1793
Outline: as §1

HOP-62 = tested on: HOP-62
Outline: as §1

NCI-H2170 = tested on: NCI-H2170
Outline: as §1

HCC-366 = tested on: HCC-366
Outline: as §1

EPLC-272H = tested on: EPLC-272H
Outline: as §1

NCI-H358 = tested on: NCI-H358
Outline: as §1

## Nc1ccn([C@@H]2O[C@H](CO)[C@@H](O)[C@@H]2O)c(=O)n1 [Cytarabine] + O=C(c1cc(Cc2n[nH]c(=O)c3ccccc23)ccc1F)N1CCN(C(=O)C2CC2)CC1 [Olaparib] (partner 8 µM)
UMC-11; first compound 0.005 µM
  relative viability: 0.345
UMC-11; first compound 0.01581 µM
  relative viability: 0.329
UMC-11; first compound 0.05 µM
  relative viability: 0.302
UMC-11; first compound 0.1581 µM
  relative viability: 0.248
UMC-11; first compound 0.5 µM
  relative viability: 0.218
COR-L 105; first compound 0.005 µM
  relative viability: 0.841
COR-L 105; first compound 0.01581 µM
  relative viability: 0.791
COR-L 105; first compound 0.05 µM
  relative viability: 0.417
COR-L 105; first compound 0.1581 µM
  relative viability: 0.469
COR-L 105; first compound 0.5 µM
  relative viability: 0.358
NCI-H1792; first compound 0.01581 µM
  relative viability: 0.399
NCI-H1792; first compound 0.05 µM
  relative viability: 0.248
NCI-H1792; first compound 0.1581 µM
  relative viability: 0.167
NCI-H1792; first compound 0.5 µM
  relative viability: 0.0776
NCI-H1944; first compound 0.005 µM
  relative viability: 0.438
NCI-H1944; first compound 0.01581 µM
  relative viability: 0.33
NCI-H1944; first compound 0.05 µM
  relative viability: 0.322
NCI-H1944; first compound 0.1581 µM
  relative viability: 0.204
NCI-H1944; first compound 0.5 µM
  relative viability: 0.156
SK-LU-1; first compound 0.005 µM
  relative viability: 0.472
SK-LU-1; first compound 0.01581 µM
  relative viability: 0.392
SK-LU-1; first compound 0.05 µM
  relative viability: 0.32
SK-LU-1; first compound 0.1581 µM
  relative viability: 0.284
SK-LU-1; first compound 0.5 µM
  relative viability: 0.235
NCI-H2009; first compound 0.005 µM
  relative viability: 0.744
NCI-H2009; first compound 0.01581 µM
  relative viability: 0.752
NCI-H2009; first compound 0.05 µM
  relative viability: 0.724
NCI-H2009; first compound 0.1581 µM
  relative viability: 0.644
NCI-H2009; first compound 0.5 µM
  relative viability: 0.202
LC-2-ad; first compound 0.005 µM
  relative viability: 0.697
LC-2-ad; first compound 0.01581 µM
  relative viability: 0.617
LC-2-ad; first compound 0.05 µM
  relative viability: 0.65
LC-2-ad; first compound 0.1581 µM
  relative viability: 0.58
LC-2-ad; first compound 0.5 µM
  relative viability: 0.474
A-427; first compound 0.005 µM
  relative viability: 0.479
A-427; first compound 0.01581 µM
  relative viability: 0.551
A-427; first compound 0.05 µM
  relative viability: 0.304
A-427; first compound 0.1581 µM
  relative viability: 0.223
A-427; first compound 0.5 µM
  relative viability: 0.253
LU99A; first compound 0.005 µM
  relative viability: 0.307
LU99A; first compound 0.01581 µM
  relative viability: 0.28
LU99A; first compound 0.05 µM
  relative viability: 0.24
LU99A; first compound 0.1581 µM
  relative viability: 0.24
LU99A; first compound 0.5 µM
  relative viability: 0.241
NCI-H2085; first compound 0.005 µM
  relative viability: 0.718
NCI-H2085; first compound 0.01581 µM
  relative viability: 0.727
NCI-H2085; first compound 0.05 µM
  relative viability: 0.802
NCI-H2085; first compound 0.1581 µM
  relative viability: 0.655
NCI-H2085; first compound 0.5 µM
  relative viability: 0.61
SW 900; first compound 0.005 µM
  relative viability: 0.899
SW 900; first compound 0.01581 µM
  relative viability: 0.797
SW 900; first compound 0.05 µM
  relative viability: 0.413
SW 900; first compound 0.1581 µM
  relative viability: 0.242
SW 900; first compound 0.5 µM
  relative viability: 0.296
NCI-H1666; first compound 0.005 µM
  relative viability: 0.675
NCI-H1666; first compound 0.01581 µM
  relative viability: 0.754
NCI-H1666; first compound 0.05 µM
  relative viability: 0.694
NCI-H1666; first compound 0.1581 µM
  relative viability: 0.613
NCI-H1666; first compound 0.5 µM
  relative viability: 0.684
HCC-78; first compound 0.005 µM
  relative viability: 0.906
HCC-78; first compound 0.01581 µM
  relative viability: 0.849
HCC-78; first compound 0.05 µM
  relative viability: 0.583
HCC-78; first compound 0.1581 µM
  relative viability: 0.419
HCC-78; first compound 0.5 µM
  relative viability: 0.278
LXF-289; first compound 0.005 µM
  relative viability: 0.904
LXF-289; first compound 0.01581 µM
  relative viability: 0.829
LXF-289; first compound 0.05 µM
  relative viability: 0.709
LXF-289; first compound 0.1581 µM
  relative viability: 0.285
LXF-289; first compound 0.5 µM
  relative viability: 0.232
NCI-H1915; first compound 0.005 µM
  relative viability: 0.288
NCI-H1915; first compound 0.01581 µM
  relative viability: 0.253
NCI-H1915; first compound 0.05 µM
  relative viability: 0.261
NCI-H1915; first compound 0.1581 µM
  relative viability: 0.24
NCI-H1915; first compound 0.5 µM
  relative viability: 0.212
NCI-H460; first compound 0.005 µM
  relative viability: 0.355
NCI-H460; first compound 0.01581 µM
  relative viability: 0.367
NCI-H460; first compound 0.05 µM
  relative viability: 0.237
NCI-H460; first compound 0.1581 µM
  relative viability: 0.0662
NCI-H460; first compound 0.5 µM
  relative viability: 0.0537
NCI-H1793; first compound 0.005 µM
  relative viability: 0.989
NCI-H1793; first compound 0.01581 µM
  relative viability: 0.847
NCI-H1793; first compound 0.05 µM
  relative viability: 0.887
NCI-H1793; first compound 0.1581 µM
  relative viability: 0.359
NCI-H1793; first compound 0.5 µM
  relative viability: 0.244
HOP-62; first compound 0.005 µM
  relative viability: 0.436
HOP-62; first compound 0.01581 µM
  relative viability: 0.338
HOP-62; first compound 0.05 µM
  relative viability: 0.253
HOP-62; first compound 0.1581 µM
  relative viability: 0.13
HOP-62; first compound 0.5 µM
  relative viability: 0.0414
NCI-H2170; first compound 0.005 µM
  relative viability: 0.544
NCI-H2170; first compound 0.01581 µM
  relative viability: 0.47
NCI-H2170; first compound 0.05 µM
  relative viability: 0.408
NCI-H2170; first compound 0.1581 µM
  relative viability: 0.265
NCI-H2170; first compound 0.5 µM
  relative viability: 0.23
HCC-366; first compound 0.005 µM
  relative viability: 0.316
HCC-366; first compound 0.01581 µM
  relative viability: 0.362
HCC-366; first compound 0.05 µM
  relative viability: 0.32
HCC-366; first compound 0.1581 µM
  relative viability: 0.136
HCC-366; first compound 0.5 µM
  relative viability: 0.0939
EPLC-272H; first compound 0.005 µM
  relative viability: 0.476
EPLC-272H; first compound 0.01581 µM
  relative viability: 0.57
EPLC-272H; first compound 0.05 µM
  relative viability: 0.607
EPLC-272H; first compound 0.1581 µM
  relative viability: 0.244
EPLC-272H; first compound 0.5 µM
  relative viability: 0.123
NCI-H358; first compound 0.005 µM
  relative viability: 0.443
NCI-H358; first compound 0.01581 µM
  relative viability: 0.491
NCI-H358; first compound 0.05 µM
  relative viability: 0.379
NCI-H358; first compound 0.1581 µM
  relative viability: 0.145
NCI-H358; first compound 0.5 µM
  relative viability: 0.115

Source: the supplement of paper PMC10307832
